Experimental data from ChEMBL document CHEMBL4825760, “Interleukin-17A Peptide Aptamers with an Unexpected Binding Moiety Selected by cDNA Display under Heterogenous Conditions” (ACS Med Chem Lett, 2021).
Activity calls are given as the source filed them. The rule behind the calls is not given here. *1 amine or outer side, *2 acyl side, *3 side chain or, on linkers, in order; H or OH if unused. Where a SMILES comes first, the peptide text is derived from it. Bridges are numbered along the chain shown (N, C = ends). oXylylene = c1ccc(C[*:2])c(C[*:1])c1

How the values were obtained:
Interleukin-17A [1] = target: T1, Interleukin-17A (Homo sapiens, UniProt Q16552); assay: Binding affinity to human IL-17A assessed as dissociation constant in PBS-T measured after 60 mins by Biolayer interferometry
T1 sequence (Q16552 whole entry): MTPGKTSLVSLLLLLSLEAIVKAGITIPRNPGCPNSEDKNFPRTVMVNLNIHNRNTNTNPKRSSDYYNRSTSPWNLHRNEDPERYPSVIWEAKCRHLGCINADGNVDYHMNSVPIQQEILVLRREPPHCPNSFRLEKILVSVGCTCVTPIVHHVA

[2] = target: T2, Interleukin-17F (Homo sapiens) (UniProt Q96PD4); assay: Binding affinity to human IL-17F
T2 sequence (whole entry): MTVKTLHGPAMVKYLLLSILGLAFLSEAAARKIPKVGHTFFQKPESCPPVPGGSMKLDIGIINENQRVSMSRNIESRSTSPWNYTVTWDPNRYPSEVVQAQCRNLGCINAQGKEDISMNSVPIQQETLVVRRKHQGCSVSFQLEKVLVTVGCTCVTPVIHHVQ

[3] = target: T3, Interleukin-17A (Mus musculus) (UniProt Q62386); assay: Binding affinity to mouse IL-17A
T3 sequence (whole entry): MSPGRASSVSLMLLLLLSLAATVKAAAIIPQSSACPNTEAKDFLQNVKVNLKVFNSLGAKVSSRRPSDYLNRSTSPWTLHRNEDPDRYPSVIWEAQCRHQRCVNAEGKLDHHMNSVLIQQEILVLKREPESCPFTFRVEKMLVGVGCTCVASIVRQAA

[4] = Stability of the compound in 50% human serum assessed as compound decomposition incubated for 24 hrs by SDS-PAGE analysis
Interleukin-17A [5] = target: T1, Interleukin-17A; assay: Binding affinity to biotinylated human IL-17A by SPR analysis

Row | SMILES | Kd (Interleukin-17A [1]) | metabolised at 24 h [4] [%] | further results
1 | CC(C)C[C@H](NC(=O)[C@H](C)NC(=O)[C@@H](NC(=O)[C@H](CC(C)C)NC(=O)[C@H](CC(C)C)NC(=O)[C@H](CCC(=O)O)NC(=O)[C@@H](N)CS)[C@@H](C)O)C(=O)NCC(=O)N[C@@H](Cc1ccc(O)cc1)C(=O)N1CCC[C@H]1C(=O)N[C@H](C(=O)N[C@@H](Cc1ccc(O)cc1)C(=O)N[C@@H](CS)C(=O)O)C(C)C (H-CELLTALGYPVYC-OH) | Not Active |  | 
2 | CC(C)C[C@H](NC(=O)[C@H](CCC(=O)O)NC(=O)[C@@H](N)CS)C(=O)N[C@@H](CC(C)C)C(=O)N[C@H](C(=O)N[C@@H](Cc1ccccc1)C(=O)N[C@@H](C)C(=O)NCC(=O)N[C@@H](Cc1ccc(O)cc1)C(=O)N1CCC[C@H]1C(=O)N[C@H](C(=O)N[C@@H](Cc1ccc(O)cc1)C(=O)N[C@@H](CS)C(=O)O)C(C)C)[C@@H](C)O (H-CELLTFAGYPVYC-OH) | Not Active |  | 
3 | CC(C)C[C@H](NC(=O)[C@H](Cc1ccccc1)NC(=O)[C@@H](NC(=O)[C@H](CC(C)C)NC(=O)[C@H](CC(C)C)NC(=O)[C@H](CCC(=O)O)NC(=O)[C@@H](N)CS)[C@@H](C)O)C(=O)NCC(=O)N[C@@H](Cc1ccc(O)cc1)C(=O)N1CCC[C@H]1C(=O)N[C@H](C(=O)N[C@@H](Cc1ccc(O)cc1)C(=O)N[C@@H](CS)C(=O)O)C(C)C (H-CELLTFLGYPVYC-OH) |  | 9.5 | Activity [2]: inactive; Activity [3]: Active
4 | CC(C)C[C@@H]1NC(=O)[C@H](Cc2ccccc2)NC(=O)[C@H]([C@@H](C)O)NC(=O)[C@H](CC(C)C)NC(=O)[C@H](CC(C)C)NC(=O)[C@H](CCC(=O)O)NC(=O)[C@@H](N)CSCc2ccccc2CSC[C@@H](C(=O)O)NC(=O)[C@H](Cc2ccc(O)cc2)NC(=O)[C@H](C(C)C)NC(=O)[C@@H]2CCCN2C(=O)[C@H](Cc2ccc(O)cc2)NC(=O)CNC1=O (H-CELLTFLGYPVYC-OH; linker 1-13 via oXylylene) |  | 30.5 | 
5 | CC(C)C[C@@H]1NC(=O)[C@H](Cc2ccccc2)NC(=O)[C@H]([C@@H](C)O)NC(=O)[C@H](CC(C)C)NC(=O)[C@H](CC(C)C)NC(=O)[C@H](CCC(=O)O)NC(=O)[C@@H](NC(=O)[C@H](CO)NC(=O)CN)CSSC[C@@H](C(=O)NCC(=O)NCC(=O)NCC(=O)N[C@@H](CO)C(=O)N[C@@H](Cc2cnc[nH]2)C(=O)N[C@@H](Cc2cnc[nH]2)C(=O)N[C@@H](Cc2cnc[nH]2)C(=O)N[C@@H](Cc2cnc[nH]2)C(=O)N[C@@H](Cc2cnc[nH]2)C(=O)N[C@@H](Cc2cnc[nH]2)C(=O)O)NC(=O)[C@H](Cc2ccc(O)cc2)NC(=O)[C@H](C(C)C)NC(=O)[C@@H]2CCCN2C(=O)[C@H](Cc2ccc(O)cc2)NC(=O)CNC1=O (H-GSCELLTFLGYPVYCGGGSHHHHHH-OH; disulfide 3-15) |  |  | Kd (Interleukin-17A [5]): Not Active
